Source: patent US10155769B2, “Fused azaheterocyclic compounds and their use as AMPA receptor modulators” (Janssen Pharmaceutica NV, priority 2016, dated 2018)

molecular target: GluA1o-γ8 (Homo sapiens (Human), UniProt P42261+Q8WXS5); experiment: Calcium flux assay (FLIPR), inhibition of TARP γ8 dependent AMPA receptor activity; type: cell-based; settings: HEK293 cells stably expressing GRIA1o-CACNG8 fusion construct; calcium flux following 15 μM glutamate; negative log of IC50 in molar
From the text: This assay was used to test compounds for their ability to inhibit TARP γ8 dependent AMPA receptor activity. The AMPA receptor is a non-selective cation channel activated by glutamate. Ionotropic glutamate receptors normally desensitize too rapidly to allow detectable calcium influx in a FLIPR assay (Strange et al. (2006). “Functional characterisation of homomeric ionotropic glutamate receptors GluR1-GluR6 in a fluorescence-based high throughput screening assay.” Comb Chem High Throughput Screen 9(2): 147-158). But, this desensitization is incomplete, and a substantial steady-state current remains in the sustained presence of glutamate (Cho et al. (2007). “Two families of TARP isoforms that have distinct effects on the kinetic properties of AMPA receptors and synaptic currents.” Neuron 55(6): 890-904).
An in vitro assay was used to determine the potency of test compounds as inhibitors of the glutamate response of the channel formed by GluA1o-γ8. To ensure a 1:1 stoichiometry of GluA1o and γ8 subunits in the expressed channel, a fusion of the cDNAs for GRIA1o and CACNG8 was used. Following Shi et al (2009) “The stoichiometry of AMPA receptors and TARPs varies by neuronal cell type.” Neuron 62(5): 633-640), the C-terminus of the cDNA for GRIA1o was fused to the N-terminus of the cDNA for γ8. The linker sequence was QQQQQQQQQQEFAT. Channels expressed with this construct appear to have similar properties to channels formed by co-expression of GRIA1o with an excess of CACNG8 (Shi et al. 2009). A clonal cell line in HEK293 cells stably expressing this construct, with a geneticin selection marker, was generated for use in this assay.
Cell expressing the GRIA1o-CACNG8 fusion construct were grown in a monolayer in 96- or 384-well microtiter plates. They were washed with assay buffer (135 mM NaCl, 4 mM KCl, 3 mM CaCl2, 1 mM MgCl2, 5 mM glucose, 10 mM HEPES, pH 7.4, 300 mOs) using a Biotek EL405 plate washer. The cells were then loaded with a calcium-sensitive dye (Calcium-5 or Calcium-6, Molecular Devices) and the test compounds at a range of concentrations. Calcium flux following the addition of 15 μM glutamate was monitored using a Molecular Devices FLIPR Tetra.
The fluorescence in each well was normalized to the fluorescence of negative and positive control wells. The negative control wells had no added compounds, and the positive control wells had been incubated with 10 μM CP465022 (a non-subtype-selective AMPA receptor antagonist) (Lazzaro et al. (2002). “Functional characterization of CP-465,022, a selective, noncompetitive AMPA receptor antagonist.” Neuropharmacology 42(2): 143-153). The responses to glutamate as functions of the test compound concentrations were fitted to a four-parameter logistic function. The fitted parameter corresponding to the midpoint was taken to be the potency of inhibition of the compound. The data in Table 4 below illustrates the observed potency for the compounds described herein. pIC50 refers to the negative log of the IC50 in molar.

Sequence of GluA1o-γ8 (P42261 other isoform, or with tags, fused parts or gaps): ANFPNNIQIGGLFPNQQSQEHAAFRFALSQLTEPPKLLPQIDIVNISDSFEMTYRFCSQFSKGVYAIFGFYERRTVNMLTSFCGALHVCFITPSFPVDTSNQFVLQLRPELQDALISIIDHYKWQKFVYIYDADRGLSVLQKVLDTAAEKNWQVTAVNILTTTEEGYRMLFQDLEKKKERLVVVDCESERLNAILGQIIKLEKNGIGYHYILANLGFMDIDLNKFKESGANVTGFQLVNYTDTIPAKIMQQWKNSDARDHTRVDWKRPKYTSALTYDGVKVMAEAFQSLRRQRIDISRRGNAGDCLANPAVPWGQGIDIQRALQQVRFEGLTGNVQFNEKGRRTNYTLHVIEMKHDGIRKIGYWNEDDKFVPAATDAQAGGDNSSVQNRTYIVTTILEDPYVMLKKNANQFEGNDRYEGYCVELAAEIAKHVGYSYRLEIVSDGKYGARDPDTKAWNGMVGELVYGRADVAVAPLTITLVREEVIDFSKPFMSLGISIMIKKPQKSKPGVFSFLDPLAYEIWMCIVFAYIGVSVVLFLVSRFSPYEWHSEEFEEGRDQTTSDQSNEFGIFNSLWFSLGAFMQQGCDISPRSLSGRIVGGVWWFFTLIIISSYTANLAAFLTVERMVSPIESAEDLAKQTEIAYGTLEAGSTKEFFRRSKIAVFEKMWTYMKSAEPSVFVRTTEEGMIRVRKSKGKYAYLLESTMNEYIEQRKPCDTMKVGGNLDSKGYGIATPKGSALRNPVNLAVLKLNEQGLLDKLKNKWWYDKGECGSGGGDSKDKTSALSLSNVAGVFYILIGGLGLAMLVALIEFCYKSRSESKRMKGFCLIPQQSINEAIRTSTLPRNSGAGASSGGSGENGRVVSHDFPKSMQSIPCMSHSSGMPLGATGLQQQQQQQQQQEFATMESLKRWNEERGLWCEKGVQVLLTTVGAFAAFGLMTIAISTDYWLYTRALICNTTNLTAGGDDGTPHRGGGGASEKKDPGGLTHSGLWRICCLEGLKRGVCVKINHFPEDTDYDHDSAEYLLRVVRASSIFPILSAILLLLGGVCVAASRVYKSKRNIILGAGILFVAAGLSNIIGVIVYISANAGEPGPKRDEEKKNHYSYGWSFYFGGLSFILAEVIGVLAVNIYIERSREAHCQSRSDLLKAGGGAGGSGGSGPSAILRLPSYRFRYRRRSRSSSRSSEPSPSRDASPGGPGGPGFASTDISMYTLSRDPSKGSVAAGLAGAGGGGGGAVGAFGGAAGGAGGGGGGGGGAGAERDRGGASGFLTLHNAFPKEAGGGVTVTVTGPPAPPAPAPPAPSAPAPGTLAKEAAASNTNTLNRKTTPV

| pIC50 | Structure (SMILES) |
| --- | --- |
| 7.5 | FC(F)(F)c1cn2ccc(C(F)(F)F)c(-c3ccc4[nH]ncc4c3)c2n1 [Example 61, 5-(2,7-Bis(trifluoromethyl)imidazo[1,2-a]pyridin-8-yl)-1H-indazole] |
| 9.5 | Cc1cc(-c2c(C(F)(F)F)ccn3cc(C(F)(F)F)nc23)cc2cn[nH]c12 [Example 62, 5-(2,7-Bis(trifluoromethyl)imidazo[1,2-a]pyridin-8-yl)-7-methyl-1H-indazole] |
| 8.9 | Cc1cc(-c2c(C(F)(F)F)ncn3cc(C(F)(F)F)nc23)cc2cn[nH]c12 [Example 63, 8-(7-Methyl-1H-indazol-5-yl)-2,7-bis(trifluoromethyl)imidazo[1,2-c]pyrimidine] |
| 9.3 | CCc1cn2cnc(C(F)(F)F)c(-c3cc(Cl)c4[nH]ncc4c3)c2n1 [Example 64, 8-(7-Chloro-1H-indazol-5-yl)-2-ethyl-7-(trifluoromethyl)imidazo[1,2-c]pyrimidine] |
| 8.8 | CCc1cn2cnc(C(F)(F)F)c(-c3cc(C)c4[nH]ncc4c3)c2n1 [Example 65, 2-Ethyl-8-(7-methyl-1H-indazol-5-yl)-7-(trifluoromethyl)imidazo[1,2-c]pyrimidine] |
| 10.0 | CC(C)c1cn2cnc(C(F)(F)F)c(-c3cc(Cl)c4[nH]ncc4c3)c2n1 [Example 66, 8-(7-Chloro-1H-indazol-5-yl)-2-isopropyl-7-(trifluoromethyl)imidazo[1,2-c]pyrimidine] |
| 9.9 | FC(F)(F)c1ncn2cc(C3CC3)nc2c1-c1cc(Cl)c2[nH]ncc2c1 [Example 67, 8-(7-Chloro-1H-indazol-5-yl)-2-cyclopropyl-7-(trifluoromethyl)imidazo[1,2-c]pyrimidine] |
| 9.6 | Cc1cc(-c2c(C(F)(F)F)ncn3cc(C4CC4)nc23)cc2cn[nH]c12 [Example 68, 2-Cyclopropyl-8-(7-methyl-1H-indazol-5-yl)-7-(trifluoromethyl)imidazo[1,2-c]pyrimidine] |
| 9.5 | O=C1Cc2cc(-c3c(C(F)(F)F)ncn4cc(C5CC5)nc34)cc(Cl)c2N1 [Example 69, 7-Chloro-5-[2-cyclopropyl-7-(trifluoromethyl)imidazo[1,2-c]pyrimidin-8-yl]indolin-2-one] |
| 5.3 | O=C1Cc2cc(-c3c(C(F)(F)F)ncn4cc(C5CC5)nc34)cc(F)c2N1 [Example 70, 5-[2-Cyclopropyl-7-(trifluoromethyl)imidazo[1,2-c]pyrimidin-8-yl]-7-fluoro-indolin-2-one] |
| 9.8 | CC(C)c1ncn2cc(C(F)(F)F)nc2c1-c1cc(Cl)c2[nH]ncc2c1 [Example 71, 8-(7-Chloro-1H-indazol-5-yl)-7-isopropyl-2-(trifluoromethyl)imidazo[1,2-c]pyrimidine] |
| 9.5 | CC(C)c1ncn2cc(C(F)F)nc2c1-c1cc(Cl)c2[nH]ncc2c1 [Example 72, 8-(7-Chloro-1H-indazol-5-yl)-2-(difluoromethyl)-7-isopropyl-imidazo[1,2-c]pyrimidine] |
| 9.1 | CCc1ncn2cc(C(F)(F)F)nc2c1-c1cc(Cl)c2[nH]ncc2c1 [Example 73, 8-(7-Chloro-1H-indazol-5-yl)-7-ethyl-2-(trifluoromethyl)imidazo[1,2-c]pyrimidine] |
| 8.7 | CCc1ncn2cc(C(F)(F)F)nc2c1-c1cc(C)c2[nH]ncc2c1 [Example 74, 7-Ethyl-8-(7-methyl-1H-indazol-5-yl)-2-(trifluoromethyl)imidazo[1,2-c]pyrimidine] |
| 8.9 | CCc1ncn2cc(C(F)F)nc2c1-c1cc(Cl)c2[nH]ncc2c1 [Example 75, 8-(7-Chloro-1H-indazol-5-yl)-2-(difluoromethyl)-7-ethyl-imidazo[1,2-c]pyrimidine] |
| 8.5 | Cc1ncn2cc(C(F)(F)F)nc2c1-c1cc(Cl)c2[nH]ncc2c1 [Example 76, 8-(7-Chloro-1H-indazol-5-yl)-7-methyl-2-(trifluoromethyl)imidazo[1,2-c]pyrimidine] |
| 9.0 | FC(F)(F)c1cn2cnc(C3CC3)c(-c3cc(Cl)c4[nH]ncc4c3)c2n1 [Example 77, 8-(7-Chloro-1H-indazol-5-yl)-7-cyclopropyl-2-(trifluoromethyl)imidazo[1,2-c]pyrimidine] |
| 8.6 | FC(F)c1cn2cnc(C3CC3)c(-c3cc(Cl)c4[nH]ncc4c3)c2n1 [Example 78, 8-(7-Chloro-1H-indazol-5-yl)-7-cyclopropyl-2-(difluoromethyl)imidazo[1,2-c]pyrimidine] |
| 8.9 | Cc1nc(C2CC2)c(-c2cc(Cl)c3[nH]ncc3c2)c2nc(C(F)(F)F)cn12 [Example 79] |
| 9.2 | Cc1nc(C2CC2)c(-c2cc(Cl)c3[nH]ncc3c2)c2nc(C(F)F)cn12 [Example 80, 8-(7-Chloro-1H-indazol-5-yl)-7-cyclopropyl-2-(difluoromethyl)-5-methyl-imidazo[1,2-c]pyrimidine] |
| 9.9 | FC(F)(F)c1ncn2c(Cl)c(C3CC3)nc2c1-c1cc(Cl)c2[nH]ncc2c1 [Example 81, 3-Chloro-8-(7-chloro-1H-indazol-5-yl)-2-cyclopropyl-7-(trifluoromethyl)imidazo[1,2-c]pyrimidine] |
| 9.5 | Fc1c(C2CC2)nc2c(-c3cc(Cl)c4[nH]ncc4c3)c(C(F)(F)F)ncn12 [Example 82, 8-(7-Chloro-1H-indazol-5-yl)-2-cyclopropyl-3-fluoro-7-(trifluoromethyl)imidazo[1,2-c]pyrimidine] |
| 9.8 | O=C1Cc2cc(-c3c(C(F)(F)F)ccn4cc(C(F)(F)F)nc34)cc(Cl)c2N1 [Example 86, 5-(2,7-Bis(trifluoromethyl)imidazo[1,2-a]pyridin-8-yl)-7-chloroindolin-2-one] |
| 9.4 | Cc1cc(-c2c(C(F)(F)F)ccn3cc(C(F)(F)F)nc23)cc2c1NC(=O)C2 [Example 87, 5-(2,7-Bis(trifluoromethyl)imidazo[1,2-a]pyridin-8-yl)-7-methylindolin-2-one] |
| 10.3 | FC(F)(F)c1cn2ccc(C(F)(F)F)c(-c3cc(Cl)c4[nH]ncc4c3)c2n1 [Example 88, 5-(2,7-Bis(trifluoromethyl)imidazo[1,2-a]pyridin-8-yl)-7-chloro-1H-indazole] |
| 10.6 | CC(C)c1cn2ccc(C(F)(F)F)c(-c3cc(Cl)c4[nH]ncc4c3)c2n1 [Example 89, 8-(7-Chloro-1H-indazol-5-yl)-2-isopropyl-7-(trifluoromethyl)imidazo[1,2-a]pyridine] |
| 9.6 | Cc1cc(-c2c(C(F)(F)F)ccn3cc(C4CC4)nc23)cc2cn[nH]c12 [Example 91, 2-Cyclopropyl-8-(7-methyl-1H-indazol-5-yl)-7-(trifluoromethyl)imidazo[1,2-a]pyridine] |
| 9.4 | CCc1cn2ccc(C(F)(F)F)c(-c3cc(C)c4[nH]ncc4c3)c2n1 [Example 92, 2-Ethyl-8-(7-methyl-1H-indazol-5-yl)-7-(trifluoromethyl)imidazo[1,2-a]pyridine] |
| 9.3 | Cc1cc(-c2c(C(F)(F)F)ccn3cc(C(F)F)nc23)cc2cn[nH]c12 [Example 93, 2-(Difluoromethyl)-8-(7-methyl-1H-indazol-5-yl)-7-(trifluoromethyl)imidazo[1,2-a]pyridine] |
| 8.1 | Cc1cn2ccc(C(F)(F)F)c(-c3cc(C)c4[nH]ncc4c3)c2n1 [Example 94, 2-Methyl-8-(7-methyl-1H-indazol-5-yl)-7-(trifluoromethyl)imidazo[1,2-a]pyridine] |
